Reference: US20210198277A1, “AMINE-SUBSTITUTED ARYL OR HETEROARYL COMPOUNDS” (Epizyme, Inc., priority 2016, published 2021)

How the values were obtained:
human EHMT2 913-1193 = biological target: T1, human EHMT2 913-1193 (Homo sapiens, UniProt Q96KQ7); experiment: EHMT2 enzyme assay on histone peptide substrate (EHMT2 PEP); assay type: biochemical; conditions: Table VI; read-out: EHMT2 PEP IC50
T1 construct: recombinant purified human EHMT2 913-1193, Viva; purchased Viva
T1 sequence (Q96KQ7 913-1193): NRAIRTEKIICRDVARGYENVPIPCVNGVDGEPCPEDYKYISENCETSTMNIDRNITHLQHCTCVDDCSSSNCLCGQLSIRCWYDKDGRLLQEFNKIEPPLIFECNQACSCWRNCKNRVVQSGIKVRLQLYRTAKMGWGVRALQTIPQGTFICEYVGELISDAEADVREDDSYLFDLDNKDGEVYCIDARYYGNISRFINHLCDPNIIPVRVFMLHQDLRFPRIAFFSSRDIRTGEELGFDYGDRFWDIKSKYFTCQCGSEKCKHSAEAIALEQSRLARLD
Summary of the method: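 Radiometric methyltransferase read-out: ^3H-methyl transfer from ^3H-SAM onto biotinylated histone peptide, captured on streptavidin Flashplates after 60 min reaction at room temperature. Enzyme 0.031 nM, preincubated 30 min with inhibitor; buffer 20 mM Bicine pH 7.5 with 1 mM TCEP; top compound concentration 50 μM final, 2% DMSO.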

EHMT1 = biological target: T2, EHMT1 (Homo sapiens, UniProt Q9H9B1); experiment: EHMT1 enzyme assay on peptide substrate (EHMT1 PEP); assay type: biochemical; conditions: Table VI; read-out: EHMT1 PEP IC50
T2 sequence (Q9H9B1 1-1298): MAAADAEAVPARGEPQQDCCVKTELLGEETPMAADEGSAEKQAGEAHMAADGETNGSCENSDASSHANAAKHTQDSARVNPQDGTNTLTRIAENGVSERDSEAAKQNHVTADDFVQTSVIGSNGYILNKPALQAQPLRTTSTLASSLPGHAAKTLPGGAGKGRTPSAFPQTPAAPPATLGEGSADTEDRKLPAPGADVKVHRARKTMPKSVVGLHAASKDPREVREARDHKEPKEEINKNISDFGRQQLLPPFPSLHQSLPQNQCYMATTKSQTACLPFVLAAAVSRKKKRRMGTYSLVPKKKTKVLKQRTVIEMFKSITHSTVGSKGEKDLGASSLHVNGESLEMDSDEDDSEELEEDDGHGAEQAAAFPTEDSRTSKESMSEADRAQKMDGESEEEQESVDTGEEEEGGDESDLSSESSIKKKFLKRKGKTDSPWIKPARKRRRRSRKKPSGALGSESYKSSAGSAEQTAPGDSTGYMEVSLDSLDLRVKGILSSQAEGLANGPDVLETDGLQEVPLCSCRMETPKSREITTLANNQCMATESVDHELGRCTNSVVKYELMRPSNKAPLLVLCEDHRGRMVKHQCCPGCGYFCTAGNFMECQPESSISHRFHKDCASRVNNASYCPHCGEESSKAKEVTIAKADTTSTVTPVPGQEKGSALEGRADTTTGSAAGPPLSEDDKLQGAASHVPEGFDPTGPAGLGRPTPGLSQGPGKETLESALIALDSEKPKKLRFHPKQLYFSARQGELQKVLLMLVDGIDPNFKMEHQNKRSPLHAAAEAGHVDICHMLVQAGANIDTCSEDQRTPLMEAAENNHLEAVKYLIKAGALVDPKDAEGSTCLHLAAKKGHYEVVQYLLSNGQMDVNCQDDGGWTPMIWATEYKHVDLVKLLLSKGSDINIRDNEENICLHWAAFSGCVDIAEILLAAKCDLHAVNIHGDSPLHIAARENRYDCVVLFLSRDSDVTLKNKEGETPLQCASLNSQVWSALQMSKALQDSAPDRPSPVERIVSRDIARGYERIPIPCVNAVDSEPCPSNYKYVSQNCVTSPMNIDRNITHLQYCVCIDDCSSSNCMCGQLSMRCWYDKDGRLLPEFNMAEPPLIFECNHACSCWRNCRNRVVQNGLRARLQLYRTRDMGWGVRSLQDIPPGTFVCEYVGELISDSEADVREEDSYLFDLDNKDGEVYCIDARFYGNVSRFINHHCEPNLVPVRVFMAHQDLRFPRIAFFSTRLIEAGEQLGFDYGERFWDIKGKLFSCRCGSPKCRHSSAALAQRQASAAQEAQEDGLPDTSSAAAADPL

Row | SMILES | IC50 (human EHMT2 913-1193) [µM] | IC50 (EHMT1) [µM]
1 | CCN1CC(COc2cc(Nc3nc(C)cc4[nH]ccc34)ncc2OC)C1 [Compound 613] | 0.1 to 1 | < 0.1
2 | CNc1cc(C)nc(Nc2cc(OCCCN3CCCC3)c3nc(C)cn3c2)n1 [Compound 616] | 1 to 10 | 0.1 to 1
3 | CNc1cc(C)nc(Nc2cc(OCCCN3CCCC3)c3nccn3c2)n1 [Compound 618] | 1 to 10 | 0.1 to 1
4 | COc1cc2c(C3CCN(C)CC3)cc(C#N)nc2cc1OCCCN1CCCC1 [Compound 790] | 0.1 to 1 | < 0.1
5 | CNc1cc(C)nc(Nc2cc(OCCCN3CCCC3)c3oncc3c2)n1 [Compound 793] | > 10 | > 10
6 | COc1ccc(Nc2nn(C)c3cnccc23)cc1OCCCN1CCCC1 [Compound 794] | > 10 | > 10
7 | COc1cnc(Nc2nn(C)c3cnccc23)cc1OCCCN1CCCC1 [Compound 795] | > 10 | > 10
8 | COc1ccc(Nc2cc(C)[nH]n2)cc1OCCCN1CCCC1 [Compound 796] | > 10 | > 10
9 | COc1ccc(Nc2cc(C)n(C)n2)cc1OCCCN1CCCC1 [Compound 797] | > 10 | > 10
10 | CNc1cc(C)nc(Nc2cnc(OC)c(OC[C@@H]3CCN(C4CCC4)C3)c2)n1 [Compound 798] | 0.1 to 1 | < 0.1
11 | COc1ccc(Nc2nc(C)cc(NC(C)C)n2)cc1OC[C@@H]1CCNC1 [Compound 800] | < 0.1 | < 0.1
12 | COc1cnc(Nc2nccc3nccn23)cc1OC[C@@H]1CCNC1 [Compound 801] | > 10 | > 10
13 | CNc1cc(C2CCOCC2)c2cc(OC)c(OC[C@@H]3CCNC3)cc2n1 [Compound 802] | < 0.1 | < 0.1
14 | CNc1cc(C2CCOCC2)c2cc(OC)c(OC[C@@H]3CCN(C)C3)cc2n1 [Compound 803] | 0.1 to 1 | < 0.1
15 | COc1cc(NC2CCOCC2)ncc1OCC1CCNC1 (centres unmarked) [Compound 806] | 1 to 10 | 1 to 10
16 | COc1cc(N(C)C2CCOCC2)ncc1OCC1CCNC1 (centres unmarked) [Compound 808] | > 10 | 1 to 10
17 | CNc1cc(C2CCN(C(C)=O)CC2)c2cc(OC)c(OCCCN3CCCC3)cc2n1 [Compound 809] | < 0.1 | < 0.1
18 | COc1cc2c(C)cc(N3CCCCC3)nc2cc1OCCCN1CCCC1 [Compound 810] | 0.1 to 1 | < 0.1
19 | COc1cc2c(C)nc(N3CCCCC3)nc2cc1OCCCN1CCCC1 [Compound 811] | > 10 | > 10
20 | COc1cc2c(C3CCN(C)CC3)cc(N3CCCCC3)nc2cc1OCCCN1CCCC1 [Compound 812] | < 0.1 | < 0.1
21 | CNc1cc(C)nc(Nc2ccc(OC)c(CN[C@H]3CCNC3)c2)n1 [Compound 813] | 1 to 10 | 0.1 to 1
22 | CNc1cc(C)nc(Nc2ccc(OC)c(CN[C@@H]3CCNC3)c2)c1 [Compound 814] | 1 to 10 | 1 to 10
